Assay results published in publication PMC7156612, “Olinciguat, an Oral sGC Stimulator, Exhibits Diverse Pharmacology Across Preclinical Models of Cardiovascular, Metabolic, Renal, and Inflammatory Disease” (Frontiers in Pharmacology, 2020).
“Also recorded” adds a separate entry of the source.

Legend:
obese ZSF1 rats [1] = experiment: ZSF1 rat model of metabolic syndrome and diabetic nephropathy; format: in vivo
Method: Lean (n=8, 370–420 g, 15 weeks) and obese (n=32, 500–630 g, 15 weeks) male ZSF1 rats were studied. Rats were treated with enalapril to reflect standard of care drug treatment for patients with diabetic kidney disease. Dose modeling based on allometric scaling relationships estimated that a 10 mg/day enalapril dose in humans (within usual dose range of 10–40 mg based on prescribing information) corresponds to 1 mg/kg/day in rats ([Nair and Jacob, 2016]). To measure hemodynamics in freely moving animals, ZSF1 obese rats were implanted with telemetry transmitters (HD-S10, Data Sciences International) at 9–10 weeks of age, as described above.
The study included a 10-day pretreatment period and a 10-week treatment period. There were five groups of rats in the study. The lean ZSF1 control group (lean control, n=8) and one obese group (obese control, n=8) were fed normal chow and drinking water throughout the 10-day pretreatment period and the 10-week treatment period. Three groups of obese rats were treated with enalapril in drinking water (equivalent to 3 mg/kg/day) throughout the 10-day pretreatment period and the 10-week treatment period. During the treatment period, these enalapril-treated obese rats were administered normal chow (ENP, n=8) or chow containing olinciguat targeting the dose of 10 mg/kg/day (ENP+OLI10, n=8) or 30 mg/kg/day (ENP+OLI30, n=8). Blood and 24-h urine samples were obtained from all animals at baseline (immediately prior to initiation of enalapril treatment), the end of the 10-day pretreatment period (Day 10) and at week 5 and week 10 of the treatment period. Plasma samples were obtained from all olinciguat-treated animals for measurement of olinciguat exposure at week 10. During week 9 of treatment, rats were fasted for 16 h overnight prior to determination of fasting blood glucose using the AlphaTRAK (Abbott) glucose monitoring system. Body weight was measured once every other week. At the end of the study, rats were anesthetized and perfused via the left ventricle with heparinized PBS (1 U/ml heparin) containing IBMX (1 mM). Organs were collected and weighed, and plasma was collected in EDTA tubes. For serum, blood was collected in serum separator tubes, maintained at room temperature for at least 30 min and centrifuged at 6,000 rpm for 10 min, and then stored at −80°C until analysis. Urine and serum samples were analyzed using the Randox Daytona Clinical Chemistry Analyzer (Randox, Kearneysville, WV) for urine protein, serum cholesterol and serum triglycerides. All measurements were performed in accordance with manufacturer's instructions.
For histology, one kidney from each rat was fixed in 10% formalin, then embedded in paraffin. Slides were prepared and stained with hematoxylin and eosin (H&E) and periodic-acid Schiff (PAS) for light microscopic analysis. Kidney sections were evaluated for the presence of glomerular pathology, tubular damage, interstitial inflammation, interstitial fibrosis, and vascular alterations. Severity-based scoring based on these evaluations was performed by a trained pathologist.
For the ZSF1 experiment, data are expressed as mean ± standard error of the mean (SEM).
In the ZSF1 study, change from baseline NT-proBNP, week 10 heart, kidney, and liver weight, urine volume, cholesterol, triglycerides, glucose, and renal histopathology sum score were analyzed by one-way ANOVA corrected for multiple comparisons using Tukey's method. Statistically significant differences vs the obese control and vs the ENP group are indicated in the results. MAP and UPE were analyzed by an ordinary two-way ANOVA with timepoint and treatment group as independent variables, followed by a Tukey's multiple comparisons test. Within each treatment group, significant differences vs baseline are indicated in the results. At week 10, statistically significant differences vs the obese control and vs the ENP control are also indicated in the results.

obese ZSF1 rats [2] = system: obese ZSF1 rats; set-up: method as in Bilan et al., 2011; conditions: 8-week old obese ZSF1 rats, enalapril 60 mg/kg/day in drinking water for 24 weeks; ref Bilan et al., 2011; cited from earlier work
[3] = set-up: method as in Tobin et al., 2018; conditions: ref Tobin et al., 2018; cited from earlier work
[4] = system: vascular smooth muscle cells (VSMC) from rat aorta; experiment: Rat aorta vascular smooth muscle cell proliferation (3H-thymidine incorporation); format: cell-based; conditions: tadalafil alone at or below 10 µM; 5% FBS, 10 µM DETA
Method: We explored the concentration response of olinciguat, tadalafil, and olinciguat in the presence of 1 μM tadalafil on rat aorta vascular smooth muscle proliferation, Tadalafil was used because it is a once-daily PDE5 inhibitor that, like the three-times-daily PDE5 inhibitor sildenafil, is approved for treatment of PAH and ED. Vascular smooth muscle cells (VSMC) from rat aorta (Lonza, R-ASM-580) were plated into a 96-well plate at 15,000 cells per well in DMEM:F12 containing 20% FBS and GA-1000 ([Gentamicin, Amphotericin B], Lonza, CC-40863) for 24 h at 37°C. Medium was removed and cells were washed once with 100 μl DMEM:F12 before adding 100 μl of DMEM:F12 and incubating for 24 h to induce quiescence. Cells were then cultured for 24 h in DMEM:F12 supplemented with 5% FBS, in the presence of test articles (vehicle, olinciguat, tadalafil) with 10 µM DETA. In the last 6 h, 0.2 μCi of ^3H-thymidine (American Radiolabeled Chemicals, ART 0178A) was added to each well to measure DNA synthesis by thymidine incorporation. Cells were washed once with HBSS and then trypsinized and transferred into FB filter plates (Millipore, MADVNOB). A rapid-filtration technique using a filtration apparatus (Millipore, MAVM0960R) with vacuum aspiration was used to harvest and rinse labeled cells (6× with 0.2 ml of chilled water). The radioactivity bound to the filters was counted with 80 µl of liquid scintillant (PerkinElmer, UltraGold MV, 6013159) in a scintillation counter (Perkin Elmer Microbeta instrument).
In the vascular smooth muscle cell proliferation experiment, a comparison between the IC50's for olinciguat alone vs oliniciguat in the presence of 1 µM tadalafil was performed by a two-tailed t-test using Log EC50 best fit values and SEs determined from a four-parameter nonlinear curve fit, assuming n=60 degrees of freedom.

[5] = system: pulmonary artery smooth muscle from idiopathic pulmonary arterial hypertension (PAH) patients; set-up: method as in Yamamura et al., 2017; conditions: ref Yamamura et al., 2017, read-out: IC50, inhibition of proliferation; cited from earlier work
[6] = system: pulmonary artery smooth muscle from healthy subjects; set-up: method as in Yamamura et al., 2017; conditions: ref Yamamura et al., 2017; cited from earlier work
[7] = set-up: method as in Forgue et al., 2006; conditions: healthy volunteers, after 10 days of dosing at 20 mg QD; ref Forgue et al., 2006; read-out: Cmax plasma concentration; cited from earlier work

CCOC(=O)[C@H](CCc1ccccc1)N[C@@H](C)C(=O)N1CCC[C@H]1C(=O)O [ENP, reference compound]
MAP at Week 10 (obese ZSF1 rats [1]; obese ZSF1, enalapril 3 mg/kg/day in drinking water, obese control 122 ± 1): 111 ± 1 mmHg
fasting blood glucose (obese ZSF1 rats [1]; obese ZSF1, enalapril 3 mg/kg/day, week 9, obese control 279.4 ± 36.5): 276.5 ± 30.9 mg/dL
change from baseline NT-proBNP (obese ZSF1 rats [1]; obese ZSF1, enalapril 3 mg/kg/day, baseline to end of treatment, obese control +86 ± 22): +44 ± 28 pg/ml
total kidney weight (obese ZSF1 rats [1]; obese ZSF1, enalapril 3 mg/kg/day, obese control 9.7 ± 0.2, lean 7.4 ± 0.07): 9.5 ± 0.3 g/kg BW
renal pathology sum score (obese ZSF1 rats [1]; obese ZSF1, enalapril 3 mg/kg/day, obese control 14.6 ± 0.2, p=0.025 vs obese control): 12.2 ± 0.4
liver weight (obese ZSF1 rats [1]; obese ZSF1, enalapril 3 mg/kg/day, obese control 72.0 ± 1.9): 70.5 ± 1.1 g/kg BW
serum cholesterol at week 10 (obese ZSF1 rats [1]; obese ZSF1, enalapril 3 mg/kg/day, obese control 428.6 ± 12.7): 383 ± 9.8 mg/dL
serum triglycerides at week 10 (obese ZSF1 rats [1]; obese ZSF1, enalapril 3 mg/kg/day, obese control 4913 ± 487.1): 3850 ± 326.0 mg/dL
increase of proteinuria over 10-week treatment period (obese ZSF1 rats [1]; obese ZSF1, enalapril alone 3 mg/kg/day, obese controls 153%): 168%
kidney weight, percent greater than in the lean control group (obese ZSF1 rats [1]; obese ZSF1 treated with enalapril): 28%
reduction in MAP (obese ZSF1 rats [2]): ~ 50 mmHg

OC(CNc1nc(-c2cc(-c3ccon3)n(Cc3ccccc3F)n2)ncc1F)(C(F)(F)F)C(F)(F)F [praliciguat]
volume of distribution [3]: 10.5 L/kg

CN1CC(=O)N2[C@H](c3ccc4c(c3)OCO4)c3[nH]c4ccccc4c3C[C@@H]2C1=O [tadalafil]
inhibition of VSMC proliferation by tadalafil alone [4]: did not inhibit vascular smooth muscle cell proliferation; also recorded: did not inhibit VSMC proliferation
IC50 [5]: 4.5 µM
effect on proliferation [6]: no effect
Cmax [7]: 1000 nM
